Where “and” joins values, the source holds several entries; their conditions need not be identical. Identical values can stand only once. Like-named read-outs stand apart in the source and are kept apart here.
Key:
[1] = sponsored clinical trials: safety and radiation dose of bolus injection; format: in vivo, human
Method: Such buffers include, but are not limited to, ethanol (solvent), sodium hydroxide and acetic acid (pH adjustment), sodium chloride injection (isotonic vehicle). The formulation to be administered as a bolus injection has been shown in sponsored clinical trials to be safe containing a dose of up to about 8 mCi to 10 mCi of radiolabeled DaT2020 and delivered in a total volume of about 2.5 mL to about 5 mL.
The radioactivity of the dose of radiolabeled DaT2020 or of its radiolabeled derivatives, can be determined by one with skill in the art, e.g. by a nuclear medicine imaging technician. In addition, the total radioactivity of the actual administered dose is of relevance and not the volume administered to achieve this dose. The exact radioactive dose of the tracer administered is determined by calculating the difference between the radioactivity in the syringe and delivery system before and after injection. After the dose is delivered, the syringe is filled with a volume of saline equal to the administered dose volume. The syringe content is recounted under the same conditions as used to determine the dose; separately. […]

[2] = target: T1, DAT in the striatum (Homo sapiens, UniProt Q01959); assay: SPECT imaging of radiotracer binding to DAT after i.v. injection; format: in vivo; parameters: from tissue; host or cells: striatum of living patients (in vivo SPECT)
T1 sequence (Q01959 whole entry): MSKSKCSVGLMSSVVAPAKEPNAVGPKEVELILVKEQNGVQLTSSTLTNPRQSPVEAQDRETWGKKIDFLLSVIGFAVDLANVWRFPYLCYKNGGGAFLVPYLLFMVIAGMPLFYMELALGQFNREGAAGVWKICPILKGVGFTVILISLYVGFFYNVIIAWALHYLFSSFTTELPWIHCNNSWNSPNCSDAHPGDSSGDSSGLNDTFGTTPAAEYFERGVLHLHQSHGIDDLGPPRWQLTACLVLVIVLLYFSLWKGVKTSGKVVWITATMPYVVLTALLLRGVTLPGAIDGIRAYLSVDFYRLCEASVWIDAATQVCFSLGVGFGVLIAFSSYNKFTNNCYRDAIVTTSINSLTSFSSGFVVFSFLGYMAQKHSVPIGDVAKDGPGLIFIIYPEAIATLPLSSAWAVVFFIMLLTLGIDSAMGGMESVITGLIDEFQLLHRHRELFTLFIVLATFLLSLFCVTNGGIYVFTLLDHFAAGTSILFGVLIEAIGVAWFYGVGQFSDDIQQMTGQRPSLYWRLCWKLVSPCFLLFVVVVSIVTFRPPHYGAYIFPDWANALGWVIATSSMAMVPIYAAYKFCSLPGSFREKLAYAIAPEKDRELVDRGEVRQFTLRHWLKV
Excerpt: More recently, the SN to striatum pathway of a live patient has become assessible by viewing images of the striatum obtained by various noninvasive imaging techniques. Such non-invasive methods use single photon emission computed tomography (SPECT) assessment measuring the uptake/binding of a radiolabeled imagining agent that binds to dopamine transporters (DAT) in the striatum. Currently, the only SPECT radiopharmaceutical approved for use in the United States, the European Union, and Canada is DaTSCAN® (N-ω-fluoropropyl-2β-carbomethoxy-3β-(4-iodophenyl) nortropane), which is radiolabeled with ^123I. After injection of DaTSCAN, the patient must wait 3 hr for its uptake into systemic circulation, and transition through the blood brain barrier into the parenchyma of the brain tissue until it reaches stable binding to DAT. At that point, radioactivity (counts) can be collected and quantified, and a visual image can be acquired via SPECT. The visual image is compiled for reading by experts who then determine if there is evidence of DAT density loss in the striatum. In the case of a patient with Parkinson's disease, an asymmetrical pattern of binding in the striatum is observed in the image, whereas in the non-parkinsonian tremor patient, the pattern is visible as bilateral and symmetrical (i.e., “normal) (Lewis et al. (2012) Practitioner 1748: 21-24). This information is used by treating physicians in determining diagnosis and subsequent treatment.
SPECT and PET are procedures in which the isotope bound to DaT2020 or derivatives thereof is measured once the agent has been administered and has reached stable binding in the ROI. Once entering the blood stream, it travels throughout the body (e.g., brain, liver, kidney, heart, lungs, and the peripheral vascular system) and binds to DAT in various regions of the body including the striatum. The time it takes to reach stable binding (to eliminate background noise to form a clearer image) depends on the ROI and the depth of the tissue penetrated by the agent.
In SPECT, the single emitted photon passes into the camera and strikes a scintillation crystal which, in turn, is viewed by a large number of photomultiplier tubes. The output voltages generated by the photomultiplier tubes are fed to a position circuit which produces four output signals. These signals contain information about the position and intensity of where the photon struck the crystal (scintillations). These signals (which “unblank” or “light up” the receiver, e.g., a cathode ray oscilloscope) for each photon are then fed into the memory circuitry of a computer and stored. […] Therefore, one can obtain counts and process them for quantitation at any single moment or over varying periods of time during a single scan session. In order to construct an image, a scan session must collect millions of counts over time in order to produce enough detail for a human reader to evaluate. […]
SPECT acquisition is performed on a SPECT/CT or stand-alone SPECT with at least two imaging heads fitted with collimators (parallel-beam and fan beam collimators with manufacturer specified (or measured according to NEMA standards) planar system resolution of <8 mm FWHM (in ‘air’ at 10 cm distance). Raw projection data (or counts) are acquired as described in Djang et al. (2013) Nuclear Med. Mol. Imaging 47(2):73-80), step-and-shoot mode with angle increments of 3° can be used. […]

[3] = target: DAT (Homo sapiens, UniProt Q01959); conditions: package insert; cited from earlier work
Chain of DAT (Q01959 whole entry, species assumed): as the sequence (Q01959 whole entry) above

[4] = target: T1, DAT in the striatum; conditions: cited from earlier work; for time after injection until binding to striatal DAT becomes stable: post-injection, before SPECT imaging

Compound | safety of bolus injection formulation ([1]; dose of up to about 8 mCi to 10 mCi, total volume about 2.5 mL to about 5 mL) | effective dose ([1]; for 5 mCi of radiolabeled DaT2020) | time after administration at which stable binding occurs ([2]; after administration, scanning can begin) [min] | time at which captured energy (counts) stabilizes ([2]; during scan after administration) [min] | SPECT image availability after i.v. injection time ([2]; post i.v. injection) [min] | time of wash-out from DAT receptors in dopaminergic neurons ([2]; post i.v. injection) [min] | scan time over which sufficient data for an image are collected ([2]; scan starting 15 min after administration) [min] | DAT sites bound for every one SERT site [3] | half-life ([4]; 123I-labeled tracer) [h] | earliest start of scanning procedure after administration ([4]; after administration) | duration for which binding remains stable ([4]; after stable binding is reached 3 hr post-injection) [h] | time of wash-out from DAT receptors in dopaminergic neurons ([4]; post i.v. injection, comparator, 'or more') [min] | SPECT image availability after i.v. injection time ([4]; post i.v. injection, comparator) [min] | time after injection until binding to striatal DAT becomes stable [4] | time after injection until binding to striatal DAT becomes stable ([4]; listed as [^123I]-FP-CIT) [h] | fraction of tracer available for DAT transporter binding in the brain tissue ([4]; rest bound to transporters other than DAT, package insert)
COC(=O)C1C(c2ccc(F)cc2)CC2CCC1N2C/C=C/[123I] (stereo not drawn) [DaT2020, [^123I]-E-2β-carbomethoxy-3β-(4-fluorophenyl)-N-(3-iodo-E-allyl) nortropane] | safe | approximately 4.3 mSv | 15 | 14 to 18 | 45 to 60 | ≤ 60 | 30 | – | – | – | – | – | – | – | – | –
COC(=O)[C@H]1[C@@H](c2ccc(I)cc2)C[C@@H]2CC[C@H]1N2CCCF [DaTSCAN, N-ω-fluoropropyl-2β-carbomethoxy-3β-(4-iodophenyl) nortropane] | – | – | – | – | – | – | – | two to three | 13.2 | at least 180 min | 3 | 180 to 240 | 180 to 240 | 3 h and 3 to 6 h | 3 | about 7%

Reference: patent US20230001026A1, “PHAR[…] UNITS AND METHODS FOR CONCOMITANT ADMINISTRATION OF RADIOTRACERS” (LikeMinds, Inc., priority 2019, published 2023)
